Reference: PubChem BioAssay (NCI)
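Values below derive from 48-hour exposures of cells grown in 96-well plates, with endpoints linearly interpolated between the two concentrations bracketing the appropriate inhibition level. At the TGI there is no net growth.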

Key:
Assay in all cases: DTP human tumour cell line panel, 48 h
DMS 114 small cell lung = test system: DMS 114 small cell lung
KM20L2 colon = test system: KM20L2 colon
HS 578T breast = test system: HS 578T breast
DMS 273 small cell lung = test system: DMS 273 small cell lung
HOP-18 NSCLC = test system: HOP-18 NSCLC
LXFL 529 NSCLC = test system: LXFL 529 NSCLC
SNB-78 CNS = test system: SNB-78 CNS

SMILES	TGI (DMS 114 small cell lung) [µM]	TGI (KM20L2 colon) [µM]	TGI (HS 578T breast) [µM]	TGI (DMS 273 small cell lung) [µM]	TGI (HOP-18 NSCLC) [µM]	TGI (LXFL 529 NSCLC) [µM]	TGI (SNB-78 CNS) [µM]
CC(C)OP(=O)(OC(C)C)c1nn(-c2ccc([N+](=O)[O-])cc2)c(=N)s1	> 100	> 100					
O=c1cnn(C/C=C/CP(=O)(O)O)c(=O)[nH]1			> 100				
OC12c3ccccc3C1CCCCCCCCCC21OCCCO1 (stereo not drawn)	> 100			> 100	> 100	> 100	> 100
COC1C(=[N+]=[N-])C(=O)NC(=O)N1C1OC(COC(c2ccccc2)(c2ccccc2)c2ccccc2)C(O)C1O (stereo not drawn)		31.1			37.5	32.1	45.6
CCOC(=O)c1csc(NC(=O)CN2CCCCC2)n1			> 100				
